Results as given in PubChem BioAssay AID2060342 (Molecular Pharmacology Branch, DTP, NCI, 2025).

Test system: 171881-019-R-J1-PDC multicell spheroid viability
Assay: Anticancer human tumor 171881-019-R-J1-PDC patient-derived invasive breast carcinoma cell line growth inhibition [IpAb]
Conditions: for IC50: curve of first compound; for viability, T/C: stronger effect = lower value
Text: Combinatorial screen of targeted agents with ipatasertib and abemaciclib in multi-cell type tumor spheroids
A high-throughput screen of multi-cell type tumor spheroids was designed to identify active combinations of targeted small molecules and ipatasertib or abemaciclib. Complex spheroids include a stromal component modeled by human endothelial cells (HUVEC) and fibroblasts modeled by human mesenchymal stem cells (MSCs). The concentration ranges selected for each drug and investigational agent were based upon clinically achievable concentrations if the clinical Cmax of the agent was known.
Compounds. The drugs and investigational agents: ipatasertib (NSC767898), abemaciclib(NSC768073), selumetinib (NSC741078), trametinib (758246), adavosertib (NSC754352), everolimus (NSC733504), sapanisertib (NSC764658), vemurafenib (NSC761431), venetoclax (NSC766270), copanlisib (NSC809693), apelisib (NSC765974), palbociblib (NSC758247), vemurafenib (NSC761431), dabrafenib (NSC764134), ravoxertinib (NSC781343), BMS-387032 (NSC767048), sotorasib (NSC818433), talazoparib (NSC767125) and afursertib (NSC778305), were obtained from the National Cancer Institute (NCI) Developmental Therapeutics Program Chemical Repository. The FDA-approved anticancer drug set is available from the NCI Developmental Therapeutics Program. […] The stock solutions were prepared in dimethyl sulfoxide (DMSO, Sigma-Aldrich, St. Louis, MO, cat. D2650) at 800-fold the tested concentration and stored at -70 degrees C prior to their use. All drugs and investigational agents were tested over a range starting from a high concentration at or near the clinical Cmax and decreasing in half-log increments. If the clinical Cmax for an agent had not been determined, the highest concentration tested was 10 microM.
NCI60 Cell Culture. NCI60 cell lines were obtained from the NCI Developmental Therapeutics Program Tumor Repository. For each lot of cells, the Repository performed Applied Biosystems AmpFLSTR Identifiler testing with PCR amplification to confirm consistency with the published Identifier STR profile for each cell line. Cells were kept in continuous culture for no more than 20 passages. The optimal seeding densities for each of the cell lines at each time point assessed were determined prior to performing the concentration response studies. Briefly, the NCI60 human tumor lines were grown as monolayers in RPMI 1640 medium supplemented with 10% FBS and 2 mmol/L L-glutamine.
An additional 9 lines were from the NCI60 cell line panel including MDA-MB-231 breast carcinoma, MDA-MB-468 breast carcinoma, MCF7 breast carcinoma, Hs578T breast carcinoma, MALME-3M melanoma, SK-MEL-2 melanoma, SK-OV-3 ovarian carcinoma, DU-145 prostate carcinoma, PC-3 prostate carcinoma, all cell lines along with major genetic alterations are listed on Table 2. Pooled donor human umbilical vein endothelial cells (HUVEC, Lonza, cat. CC-2519) and human mesenchymal stem cells (hMSC, Lonza, cat. PT-2501) were purchased from Lonza (Walkersville, MD).
PDMR cell lines were grown in complete medium (DC medium): Dulbecco's modified Eagle's medium (DMEM)/F12 supplemented with 5% fetal bovine serum (FBS), 2 mM L-glutamine, 100 U/mL penicillin and 100 µg/ml streptomycin, 0.4 µg/ml hydrocortisone, 10 ng/ml epidermal growth factor (EGF) recombinant human protein, 24 µg/mL adenine, and 0.1 mg/mL primocin. During culture from frozen stock vials, PDMR cells were cultured in the same medium containing 10 µM Y-27632 (see Table 3). The PDCs were cultured in complete DMEM/F12 media without 10 microM Y-27632 dihydrochloride for at least two passages prior to the screen. The pooled donor HUVEC and hMSC were cultured in endothelial cell growth medium 2 (PromoCell, Heidelberg, Germany, cat. C-22011) and mesenchymal stem cell growth medium 2 (PromoCell, cat. C-28009), respectively. For all experiments, HUVEC and hMSC were used at passages </=5.
[…]

[1] = second compound 0.01 µM, first compound 0.0316 µM
[2] = second compound 0.01 µM, first compound 0.1 µM
[3] = second compound 0.01 µM, first compound 0.316 µM
[4] = second compound 0.01 µM, first compound 1 µM
[5] = second compound 0.01 µM, first compound 3.16 µM
[6] = second compound 0.01 µM, first compound 10 µM
[7] = second compound 0.0316 µM, first compound 0.0316 µM
[8] = second compound 0.0316 µM, first compound 0.1 µM
[9] = second compound 0.0316 µM, first compound 0.316 µM
[10] = second compound 0.0316 µM, first compound 1 µM
[11] = second compound 0.0316 µM, first compound 3.16 µM
[12] = second compound 0.0316 µM, first compound 10 µM
[13] = second compound 0.1 µM, first compound 0.0316 µM
[14] = second compound 0.1 µM, first compound 0.1 µM
[15] = second compound 0.1 µM, first compound 0.316 µM
[16] = second compound 0.1 µM, first compound 1 µM
[17] = second compound 0.1 µM, first compound 3.16 µM
[18] = second compound 0.1 µM, first compound 10 µM
[19] = second compound 0.316 µM, first compound 0.0316 µM
[20] = second compound 0.316 µM, first compound 0.1 µM
[21] = second compound 0.316 µM, first compound 0.316 µM
[22] = second compound 0.316 µM, first compound 1 µM
[23] = second compound 0.316 µM, first compound 3.16 µM
[24] = second compound 0.316 µM, first compound 10 µM
[25] = second compound 1 µM, first compound 0.0316 µM
[26] = second compound 1 µM, first compound 0.1 µM
[27] = second compound 1 µM, first compound 0.316 µM
[28] = second compound 1 µM, first compound 1 µM
[29] = second compound 1 µM, first compound 3.16 µM
[30] = second compound 1 µM, first compound 10 µM
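Further: spheroids exposed to the agents for seven days before readout.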

SMILES	IC50 (second compound 0.1 µM) [nM]	IC50 (second compound 0.316 µM) [nM]	IC50 (second compound 1 µM) [nM]	viability, T/C [13] [%]	viability, T/C [14] [%]	viability, T/C [15] [%]	viability, T/C [16] [%]	viability, T/C [17] [%]	viability, T/C [18] [%]	viability, T/C [19] [%]	viability, T/C [20] [%]	viability, T/C [21] [%]	viability, T/C [22] [%]	viability, T/C [23] [%]	viability, T/C [24] [%]	viability, T/C [25] [%]	viability, T/C [26] [%]	viability, T/C [27] [%]	viability, T/C [28] [%]	viability, T/C [29] [%]	other results
CCCS(=O)(=O)Nc1ccc(F)c(C(=O)c2c[nH]c3ncc(-c4ccc(Cl)cc4)cc23)c1F + CCN1CCN(Cc2ccc(Nc3ncc(F)c(-c4cc(F)c5nc(C)n(C(C)C)c5c4)n3)nc2)CC1	> 10000	> 10000	> 10000	113	94.9	107	98.4	95.5	94.1	123	129	112	113	106	99.2	143	143	141	137	130	IC50 (second compound 0.01 µM): > 10000 nM; IC50 (second compound 0.0316 µM): > 10000 nM; viability, T/C [1]: 103%; viability, T/C [2]: 80.8%; viability, T/C [3]: 98.6%; viability, T/C [4]: 87%; viability, T/C [5]: 82.9%; viability, T/C [6]: 83.9%; viability, T/C [7]: 96.1%; viability, T/C [8]: 88.5%; viability, T/C [9]: 90.9%; viability, T/C [10]: 91.6%; viability, T/C [11]: 85.4%; viability, T/C [12]: 92.3%; viability, T/C [30]: 119%
Cn1nccc1Nc1nccc(-c2ccn(C(CO)c3ccc(Cl)c(F)c3)c(=O)c2)n1 (stereo not given) + CCN1CCN(Cc2ccc(Nc3ncc(F)c(-c4cc(F)c5nc(C)n(C(C)C)c5c4)n3)nc2)CC1	929	1140	2970	138	113	78.5	47.4	31.2	20.9	144	122	79.3	52.2	38.8	26.5	161	129	87.5	61.5	46.5	IC50 (second compound 0.01 µM): 772 nM; IC50 (second compound 0.0316 µM): 810 nM; viability, T/C [1]: 117%; viability, T/C [2]: 112%; viability, T/C [3]: 79.5%; viability, T/C [4]: 41.6%; viability, T/C [5]: 24.5%; viability, T/C [6]: 18.5%; viability, T/C [7]: 132%; viability, T/C [8]: 122%; viability, T/C [9]: 80.6%; viability, T/C [10]: 43.2%; viability, T/C [11]: 29.2%; viability, T/C [12]: 19.7%; viability, T/C [30]: 32.7%
CCCS(=O)(=O)Nc1ccc(F)c(C(=O)c2c[nH]c3ncc(-c4ccc(Cl)cc4)cc23)c1F + CC(C)NCC(C(=O)N1CCN(c2ncnc3c2C(C)CC3O)CC1)c1ccc(Cl)cc1	> 10000	> 10000	< 31.6	112	128	110	111	112	90.8	90.3	91.5	92.5	97.8	110	100	36.9	39.9	38.9	41.4	47.2	IC50 (second compound 3.16 µM): < 31.6 nM; IC50 (second compound 10 µM): < 31.6 nM; viability, T/C [30]: 53.7%; viability, T/C (second compound 3.16 µM, first compound 0.0316 µM): 12.8%; viability, T/C (second compound 3.16 µM, first compound 0.1 µM): 13.4%; viability, T/C (second compound 3.16 µM, first compound 0.316 µM): 14.2%; viability, T/C (second compound 3.16 µM, first compound 1 µM): 14.5%; viability, T/C (second compound 3.16 µM, first compound 3.16 µM): 21%; viability, T/C (second compound 3.16 µM, first compound 10 µM): 24.1%; viability, T/C (second compound 10 µM, first compound 0.0316 µM): 7.7%; viability, T/C (second compound 10 µM, first compound 0.1 µM): 7.32%; viability, T/C (second compound 10 µM, first compound 0.316 µM): 8.04%; viability, T/C (second compound 10 µM, first compound 1 µM): 8.61%; viability, T/C (second compound 10 µM, first compound 3.16 µM): 10.4%; viability, T/C (second compound 10 µM, first compound 10 µM): 11%
